The text below walks through data of publication PMC7311426, “An amphipathic peptide with antibiotic activity against multidrug-resistant Gram-negative bacteria” (Nature Communications, 2020).

The test system of one experiment is P. aeruginosa. The experiment in a line: microbe, parasite or virus in culture. The settings on record: Pseudomonas aeruginosa, ATCC27853, read-out: BMD MIC, P. aeruginosa ATCC 27853 control strain, mode of 6 replicates. In a few lines:
(§1)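 Broth microdilution in MHB, 2-fold 12-point series from 128 or 64 down to 0.06 or 0.03 μg mL^−1, 5 × 10^5 CFU mL^−1. Extra runs in CAMHB per CLSI and in MHB with 1% agarose; n ≥ 6.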

Another experiment concerns K. pneumoniae. The experiment is described as follows: microbe, parasite or virus in culture. As to conditions: Klebsiella pneumoniae, MHB, mode of 6 replicates. In a few lines: as §1
Another experiment deals with S. enterica Typhi. The experiment is described as follows: microbe, parasite or virus in culture. As to conditions: Salmonella enterica, ATCC14028 / TYPHI, read-out: BMD MIC. In a few lines: as §1
For experiment [1], the system named is E. coli. The experiment in a line: microbe, parasite or virus in culture. The settings on record: Escherichia coli. In a few lines: as §1
Experiment [2] concerns E. coli. Further details: method as in Hasman H, et al. Euro. Surveill. (2015) 20:49. As to conditions: E. coli ESBL20150072, mcr-1 pos; ESBL; CAMHB; comparator antibiotics; ref Hasman H, et al. Euro. Surveill. (2015) 20:49; cited from earlier work.

Structures are written as SMILES. Converted amounts (≈) assume the structure as drawn. Like-named read-outs stand apart in the source and are kept apart here.

In the case of `O=C(O)c1cn(C2CC2)c2cc(N3CCNCC3)c(F)cc2c1=O` [Ciprofloxacin, ciprofloxacin], the MIC in the experiment with P. aeruginosa (CAMHB) was ≤ 0.25 µg/mL; in the experiment with P. aeruginosa (MHB) it was 0.5 µg/mL (≈ 1.51 µM); in the experiment with K. pneumoniae (ATCC13883, read-out: BMD MIC, K. pneumoniae ATCC 13883 type strain (polymyxin/colistin heteroresistant)), ≤ 0.25 µg/mL; in the experiment on K. pneumoniae (BAA2146, read-out: BMD MIC, K. pneumoniae BAA-2146, MDR, ESBL, NDM-1 pos) it was > 64 µg/mL; in the experiment with S. enterica Typhi it was 0.004 µg/mL (≈ 0.0121 µM); in the experiment on E. coli [1] (ATCC25922, read-out: BMD MIC, E. coli ATCC 25922 FDA control strain, CAMHB, mode of 6 replicates), ≤ 0.25 µg/mL. The MIC in the experiment on E. coli [1] (ATCC25922, read-out: BMD MIC, E. coli ATCC 25922 FDA control strain, MHB, mode of 6 independent biological replicates) is ≤ 0.25 µg/mL; in the experiment with E. coli [1] (ATCC700926 / MG1655, read-out: BMD MIC) it was ≤ 0.25 µg/mL; in the experiment on E. coli [1] (ATCC700928, read-out: BMD MIC, E. coli ATCC 700928 CFT073 UPEC, CAMHB, mode of 6 replicates), ≤ 0.25 µg/mL; in the experiment with E. coli [1] (read-out: BMD MIC) it was ≤ 0.25 µg/mL. The “BMD MIC” value with E. coli [2] is >2 µg/mL.
